Reference: ChEMBL document CHEMBL4229543, “Squaramides as novel class I and IIB histone deacetylase inhibitors for topical treatment of cutaneous t-cell lymphoma” (Bioorg Med Chem Lett, 2018)

Legend:
Histone deacetylase 4 = Histone deacetylase 4 (Homo sapiens, UniProt P56524); assay: Inhibition of human recombinant HDAC4 using fluorogenic HDAC substrate class 2a after 30 mins by fluorimetrc method
Histone deacetylase 7 = biological target: T1, Histone deacetylase 7 (Homo sapiens, UniProt Q8WUI4); assay: Inhibition of human recombinant HDAC7 using fluorogenic HDAC substrate class 2a after 45 mins by fluorimetrc method
T1 sequence (Q8WUI4 whole entry): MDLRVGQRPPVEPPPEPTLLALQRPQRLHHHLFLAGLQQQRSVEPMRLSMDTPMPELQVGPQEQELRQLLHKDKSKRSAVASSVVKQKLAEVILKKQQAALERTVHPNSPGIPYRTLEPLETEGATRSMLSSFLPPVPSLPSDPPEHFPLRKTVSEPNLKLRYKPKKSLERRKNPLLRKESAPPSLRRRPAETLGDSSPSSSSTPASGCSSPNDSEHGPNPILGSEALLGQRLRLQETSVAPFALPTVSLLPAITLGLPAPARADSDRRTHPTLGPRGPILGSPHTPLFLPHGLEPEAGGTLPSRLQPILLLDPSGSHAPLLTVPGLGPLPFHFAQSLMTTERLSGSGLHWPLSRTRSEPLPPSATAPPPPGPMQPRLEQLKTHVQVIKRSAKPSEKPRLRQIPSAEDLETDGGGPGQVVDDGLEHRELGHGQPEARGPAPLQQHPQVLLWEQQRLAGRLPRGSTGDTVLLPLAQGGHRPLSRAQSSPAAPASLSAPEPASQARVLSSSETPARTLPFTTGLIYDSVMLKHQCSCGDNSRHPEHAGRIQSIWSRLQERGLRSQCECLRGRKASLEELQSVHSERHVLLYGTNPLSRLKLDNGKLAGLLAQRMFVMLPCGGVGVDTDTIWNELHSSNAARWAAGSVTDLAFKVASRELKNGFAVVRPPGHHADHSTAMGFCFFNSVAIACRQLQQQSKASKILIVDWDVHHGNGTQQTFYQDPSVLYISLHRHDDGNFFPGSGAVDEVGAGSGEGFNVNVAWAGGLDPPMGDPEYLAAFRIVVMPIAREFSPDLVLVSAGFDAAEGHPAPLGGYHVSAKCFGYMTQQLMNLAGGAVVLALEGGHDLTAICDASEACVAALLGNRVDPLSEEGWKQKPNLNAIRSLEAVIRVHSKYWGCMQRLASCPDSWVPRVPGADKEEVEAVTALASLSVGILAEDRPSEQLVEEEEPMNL

[1] = biological target: T2, NAD-dependent protein deacetylase sirtuin-7 (Homo sapiens, UniProt Q9NRC8); assay: Inhibition of SIRT7 (unknown origin)
T2 sequence (Q9NRC8 whole entry): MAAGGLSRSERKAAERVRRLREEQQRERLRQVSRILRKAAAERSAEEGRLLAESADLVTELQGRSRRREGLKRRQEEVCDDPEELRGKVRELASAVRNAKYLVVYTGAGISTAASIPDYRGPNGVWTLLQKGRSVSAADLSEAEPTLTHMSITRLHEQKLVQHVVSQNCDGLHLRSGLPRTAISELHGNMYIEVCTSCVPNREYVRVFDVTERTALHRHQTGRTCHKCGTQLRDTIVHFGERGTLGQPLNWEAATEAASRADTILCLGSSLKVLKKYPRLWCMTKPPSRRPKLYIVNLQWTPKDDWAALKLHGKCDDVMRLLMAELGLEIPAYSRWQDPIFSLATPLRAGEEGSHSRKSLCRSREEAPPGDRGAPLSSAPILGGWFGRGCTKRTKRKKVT

[2] = biological target: T3, NAD-dependent protein deacetylase sirtuin-3, mitochondrial (Homo sapiens, UniProt Q9NTG7); assay: Inhibition of human recombinant SIRT3 using fluoro-lysine sirtuin 2 deacetylase substrate after 45 mins by fluorimetrc method
T3 sequence (Q9NTG7 whole entry): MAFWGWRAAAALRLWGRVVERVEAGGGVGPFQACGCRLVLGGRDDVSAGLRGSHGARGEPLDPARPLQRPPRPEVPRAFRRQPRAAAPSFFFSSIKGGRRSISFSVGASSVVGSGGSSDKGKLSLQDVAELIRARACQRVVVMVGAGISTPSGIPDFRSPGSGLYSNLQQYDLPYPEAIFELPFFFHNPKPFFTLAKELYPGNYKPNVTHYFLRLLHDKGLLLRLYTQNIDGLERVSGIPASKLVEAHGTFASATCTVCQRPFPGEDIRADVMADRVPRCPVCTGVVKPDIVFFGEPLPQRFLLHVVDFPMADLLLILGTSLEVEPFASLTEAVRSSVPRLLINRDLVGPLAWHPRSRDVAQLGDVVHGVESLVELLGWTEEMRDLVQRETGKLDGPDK

Sequence of Histone deacetylase 4 (P56524 whole entry): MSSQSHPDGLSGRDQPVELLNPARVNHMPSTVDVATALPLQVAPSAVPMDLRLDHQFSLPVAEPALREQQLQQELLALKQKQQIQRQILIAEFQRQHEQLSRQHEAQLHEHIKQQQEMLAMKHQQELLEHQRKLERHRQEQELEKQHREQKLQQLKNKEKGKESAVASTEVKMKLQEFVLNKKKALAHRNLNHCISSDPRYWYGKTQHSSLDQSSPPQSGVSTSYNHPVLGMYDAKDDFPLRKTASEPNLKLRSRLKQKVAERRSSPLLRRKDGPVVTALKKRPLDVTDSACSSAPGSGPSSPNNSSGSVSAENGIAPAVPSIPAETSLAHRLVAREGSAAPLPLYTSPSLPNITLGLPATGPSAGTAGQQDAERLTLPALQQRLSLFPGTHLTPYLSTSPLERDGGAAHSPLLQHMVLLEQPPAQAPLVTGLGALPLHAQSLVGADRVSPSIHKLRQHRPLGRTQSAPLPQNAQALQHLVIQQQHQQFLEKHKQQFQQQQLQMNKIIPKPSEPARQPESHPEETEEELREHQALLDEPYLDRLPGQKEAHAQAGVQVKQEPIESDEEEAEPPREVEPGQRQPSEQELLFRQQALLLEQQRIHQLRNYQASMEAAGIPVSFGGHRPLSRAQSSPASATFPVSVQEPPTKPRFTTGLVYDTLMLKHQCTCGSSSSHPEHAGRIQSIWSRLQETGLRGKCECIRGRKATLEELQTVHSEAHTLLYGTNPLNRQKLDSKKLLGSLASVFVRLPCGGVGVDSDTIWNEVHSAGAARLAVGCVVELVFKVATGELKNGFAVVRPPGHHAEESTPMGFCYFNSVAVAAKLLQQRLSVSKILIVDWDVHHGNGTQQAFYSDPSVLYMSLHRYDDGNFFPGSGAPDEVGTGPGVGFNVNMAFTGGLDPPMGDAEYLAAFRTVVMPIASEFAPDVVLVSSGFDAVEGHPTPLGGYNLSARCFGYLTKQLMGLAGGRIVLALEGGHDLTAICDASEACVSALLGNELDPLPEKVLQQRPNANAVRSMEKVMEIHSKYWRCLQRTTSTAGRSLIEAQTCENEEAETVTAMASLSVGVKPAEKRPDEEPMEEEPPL

| Ki (Histone deacetylase 4) | Ki (Histone deacetylase 7) | Ki [1] | Ki [2] | SMILES |
| --- | --- | --- | --- | --- |
| > 10 µM | > 10 µM | > 10 µM | > 10 µM | COc1ccc(Nc2c(NCCCCCC(=O)NO)c(=O)c2=O)cc1 |
| 3.4 µM | 1.7 µM | > 10 µM | > 10 µM | CC(C)(CCCCC(=O)NO)Nc1c(Nc2ccc(C(F)(F)F)cc2)c(=O)c1=O |
| > 10 µM | > 10 µM | > 10 µM | > 10 µM | CC(Nc1c(NCCCCCC(=O)NO)c(=O)c1=O)C12CC3CC(CC(C3)C1)C2 (configuration not stated) |
